Experiments:
[1] = tested on: Walker carcinosarcoma 256; assay: Walker carcinosarcoma 256 tumour growth inhibition in rats; format: in vivo, Sprague-Dawley rats; details: daily p.o. for 5 days, result in words
Text: (§1) LD50 is the dose that causes a 50 percent lethality of the animals, and ED50 is the dose that causes a 50 percent reduction of tumour size.
(§2) The experimental design and the interpretation of the results are in accordance with the standards set by the CCNSC (Cancer Chemotherpy Reports, January 1959 and December 1962).
Walker carcinosarcoma 256.
(§3) Experimental animals: Sprague-Dawley rats.
Tumour implant: Tumour pieces with 2-4 mm diameter, sub-
Therapy: Daily p.o. administration for 5 days starting on
the day following implantation.
Termination: The animals are killed on the 9th day.
(§4) Evaluation: Weights of tumours of test animals are compared
(§5) with those of control animals.

[2] = tested on: Ehrlich ascites tumour, ELD hyperdiploid; assay: Ehrlich ascites tumour, ELD hyperdiploid (46 chromosomes), growth inhibition in mice; format: in vivo, SPF NMRI mice; details: one i.p. injection, result in words
Text: as §2
Ehrlich ascites tumour, ELD hyperdiploid
Experimental animals: SPF NMRI mice.
Tumour implant: 2 × 10^6 tumour cells i.p.
(§6) Therapy: One injection i.p. on the day following implanta-
(§7) Termination: The animals are killed on the 8th day.
Evaluation: Weight of tumours of test animals compared with
those of control animals.

Hepatome AH 130 = Hepatome AH 130 tumour growth inhibition in rats; format: in vivo, Sprague-Dawley rats; details: one i.p. injection, result in words
Text: as §1, §2, §3
Tumour implant: 5 × 10^6 tumour cells i.p.
as §6, §7, §4, §5

Q: With `CC(=O)[C@@]1(OC(=O)CCCOC(=O)CCCc2ccc(N(CCCl)CCCl)cc2)CC[C@H]2[C@@H]3C[C@H](C)C4=CC(=O)CC[C@]4(C)[C@H]3CC[C@@]21C` [3:21, 17α-[4-(4-(4-(N,N-bis(2-chloroethyl)amino)phenyl)butanoyloxy)butanoyloxy]-6α-methylpregn-4-ene-3,20-dione] as the compound, how does the antitumour activity [1] read?
A: exhibit antitumour activity

Q: Which antitumour activity [1] does the source give for `CC(=O)[C@@]1(OC(=O)COC(=O)[C@@H](N)Cc2ccc(N(CCCl)CCCl)cc2)CC[C@H]2[C@@H]3CCC4=CC(=O)CC[C@]4(C)[C@H]3CC[C@@]21C` [3:12, 17-[(2S)-2-amino-3-(4-(N,N-bis(2-chloroethyl)amino)phenyl)propanoyloxyacetoxy]pregn-4-ene-3,20-dione] here?
A: exhibit antitumour activity

Q: What about the antitumour activity [2] of the same compound?
A: exhibit antitumour activity

Q: Which antitumour activity [1] does the source give for `CC(=O)[C@@]1(OC(=O)COC(=O)c2cccc(N(CCCl)CCCl)c2)CC[C@H]2[C@@H]3CCC4=CC(=O)CC[C@]4(C)[C@H]3CC[C@@]21C` [3:6, 17α-/3-(N,N-bis(2-chloroethyl)amino)benzoyloxyacetoxy/pregn-4-ene-3,20-dione] here?
A: exhibit antitumour activity

Q: What about the antitumour activity (Hepatome AH 130) of the same compound?
A: exhibit antitumour activity

Q: What about the antitumour activity [2] of the same compound?
A: exhibit antitumour activity

Q: With `CC(=O)[C@@]1(OC(=O)COC(=O)CCCc2ccc(N(CCCl)CCCl)cc2)CC[C@H]2[C@@H]3C=C(Cl)C4=CC(=O)[C@@H]5C[C@@H]5[C@]4(C)[C@H]3CC[C@@]21C` [3:11, 6-chloro-17α-[4-(4-(N,N-bis(2-chloroethyl)amino)phenyl)butanoyloxyacetoxy]-1α,2α-methylenepregna-4,6-diene-3,20-dione] as the compound, how does the antitumour activity [1] read?
A: exhibit antitumour activity

Q: And the antitumour activity [2]?
A: exhibit antitumour activity

Q: How did the antitumour activity (Hepatome AH 130) turn out when `CC(=O)[C@@]1(OC(=O)CCCNC(=O)c2ccc(C)c(N(CCCl)CCCl)c2)CC[C@H]2[C@@H]3CCC4=CC(=O)CC[C@]4(C)[C@H]3CC[C@@]21C` [6:4] was run?
A: exhibit antitumour activity

Q: What about the antitumour activity [2] of the same compound?
A: exhibit antitumour activity

Q: Which antitumour activity [1] does the source give for `CC(=O)[C@@]1(OC(=O)CCCNC(=O)Cc2ccc(N(CCCl)CCCl)cc2)CC[C@H]2[C@@H]3CCC4=CC(=O)CC[C@]4(C)[C@H]3CC[C@@]21C` [6:1, 17α-/4-(4-(N,N-bis(2-chloroethyl)amino)phenylacetylamino)butanoyloxy/pregn-4-ene-3,20-dione] here?
A: exhibit antitumour activity

Q: What about the antitumour activity [2] of the same compound?
A: exhibit antitumour activity

Q: What does the source list for `CC(=O)[C@@]1(OC(=O)COC(=O)CCCc2ccc(N(CCCl)CCCl)cc2)CC[C@H]2[C@@H]3C[C@H](C)C4=CC(=O)CC[C@]4(C)[C@H]3CC[C@@]21C` [3:16, 17α-[4-(4-(N,N-bis(2-chloroethyl)amino)phenyl)butanoyloxyacetoxy]-6α-methylpregn-4-ene-3,20-dione]?
A: antitumour activity [1]: exhibit antitumour activity; antitumour activity [2]: exhibit antitumour activity

Q: Which antitumour activity (Hepatome AH 130) does the source give for `CC(=O)N[C@@H](Cc1ccc(N(CCCl)CCCl)cc1)C(=O)OCCCC(=O)O[C@]1(C(C)=O)CC[C@H]2[C@@H]3CCC4=CC(=O)CC[C@]4(C)[C@H]3CC[C@@]21C` [3:15, 17-[4-((2S)-2-acetamido-3-(4-(N,N-bis(2-chloroethyl)amino)phenyl)propanoyloxy)butanoyloxy]pregn-4-ene-3,20-dione] here?
A: exhibit antitumour activity

Q: For `CC(=O)[C@@]1(OC(=O)C(C)OC(=O)/C=C/c2ccccc2N(CCCl)CCCl)CC[C@H]2[C@@H]3C=C(C)C4=CC(=O)CC[C@]4(C)[C@H]3CC[C@@]21C` (stereo partly drawn) [3:9, 17α-/2-((2E)-3-(2-(N,N-bis(2-chloroethyl)amino)phenyl)propenoyloxy)propanoyloxy/-6-methylpregna-4,6-diene-3,20-dione], which antitumour activity (Hepatome AH 130) is on record?
A: exhibit antitumour activity

Q: And the antitumour activity [2]?
A: exhibit antitumour activity

Q: For `CC(=O)[C@@]1(OC(=O)CCCCOC(=O)C(N)Cc2ccc(N(CCCl)CCCl)cc2)CC[C@H]2[C@@H]3C[C@H](F)C4=CC(=O)CC[C@]4(C)[C@H]3CC[C@@]21C` (stereo partly drawn) [3:10, 17α-/5-(2-amino-3-(4-(N,N-bis(2-chloroethyl)amino)phenyl)propanoyloxy)pentanoyloxy/-6α-fluoropregn-4-ene-3,20-dione], which antitumour activity (Hepatome AH 130) is on record?
A: exhibit antitumour activity

Q: Which antitumour activity (Hepatome AH 130) does the source give for `CC(=O)[C@@]1(OC(=O)COC(=O)Oc2ccc(N(CCCl)CCCl)cc2)[C@H](C)C[C@H]2[C@@H]3C=C(Cl)C4=CC(=O)CC[C@]4(C)[C@H]3CC[C@@]21C` [5:3, 6-chloro-17α-/4-(N,N-bis(2-chloroethyl)amino)phenoxycarbonyloxyacetoxy/-16α-methylpregna-4,6-diene-3,20-dione] here?
A: exhibit antitumour activity

Q: For `CC(=O)[C@@]1(OC(=O)COC(=O)[C@@H](N)Cc2ccccc2N(CCCl)CCCl)CC[C@H]2[C@@H]3CCC4=CC(=O)CC[C@]4(C)[C@H]3CC[C@@]21C` [3:20, 17-[(2S)-2-amino-3-(2-(N,N-bis(2-chloroethyl)amino)phenyl)propanoyloxyacetoxy]pregn-4-ene-3,20-dione], which antitumour activity (Hepatome AH 130) is on record?
A: exhibit antitumour activity

Q: `CC(=O)[C@@]1(OC(=O)COC(=O)Oc2ccc(N(CCCl)CCCl)cc2)CC[C@H]2[C@@H]3CCC4=CC(=O)CC[C@]4(C)[C@H]3CC[C@@]21C` [5:4, 17α-[4-(N,N-bis(2-chloroethyl)amino)phenoxycarbonyloxyacetoxy]pregn-4-ene-3,20-dione] was tested. Which antitumour activity (Hepatome AH 130) did it give?
A: exhibit antitumour activity

Q: What about the antitumour activity [2] of the same compound?
A: exhibit antitumour activity

Q: With `CC(=O)[C@@]1(OC(=O)CCCOC(=O)c2ccc(C)c(N(CCCl)CCCl)c2)CC[C@H]2[C@@H]3C=C(C)C4=CC(=O)CC[C@]4(C)[C@H]3CC[C@@]21C` [3:23, 17α-[4-(3-(N,N-bis(2-chloroethyl)amino)-4-methylbenzoyloxy)butanoyloxy]-6-methylpregna-4,6-diene-3,20-dione] as the compound, how does the antitumour activity (Hepatome AH 130) read?
A: exhibit antitumour activity

Q: Which antitumour activity [1] does the source give for `CC(=O)[C@@]1(OC(=O)COC(=O)c2ccc(C)c(N(CCCl)CCCl)c2)CC[C@H]2[C@@H]3C=C(Cl)C4=CC(=O)CC[C@]4(C)[C@H]3CC[C@@]21C` [3:18, 6-chloro-17α-[3-(N,N-bis(2-chloroethyl)amino)-4-methylbenzoyloxyacetoxy]pregna-4,6-diene-3,20-dione] here?
A: exhibit antitumour activity

Q: Which results are given for `CC(=O)[C@@]1(OC(=O)C(C)OC(=O)CCCCc2ccc(N(CCCl)CCCl)cc2)CC[C@H]2[C@@H]3C=C(Cl)C4=CC(=O)CC[C@]4(C)[C@H]3CC[C@@]21C` (stereo partly drawn) [3:8, 6-chloro-17α-/2-(5-(4-(N,N-bis(2-chloroethyl)amino)phenyl)pentanoyloxy)propanoyloxy/pregna-4,6-diene-3,20-dione]?
A: antitumour activity (Hepatome AH 130): exhibit antitumour activity; antitumour activity [2]: exhibit antitumour activity

Q: With `CC(=O)N[C@@H](Cc1ccc(N(CCCl)CCCl)cc1)C(=O)OCC(=O)O[C@]1(C(C)=O)CC[C@H]2[C@@H]3CCC4=CC(=O)CC[C@]4(C)[C@H]3CC[C@@]21C` [3:14, 17-[(2S)-2-acetamido-3-(4-(N,N-bis(2-chloroethyl)amino)phenyl)propanoyloxyacetoxy]pregn-4-ene-3,20-dione] as the compound, how does the antitumour activity [1] read?
A: exhibit antitumour activity

Q: What about the antitumour activity [2] of the same compound?
A: exhibit antitumour activity
